Values joined by “and” are separate entries in the source; they are usually repeats but may differ in a detail not shown here. Identical values can stand only once. Like-named read-outs stand apart in the source and are kept apart here.
What was measured:
[1] = in vivo; settings: mouse
Excerpt: Orthotopic PDX models of pancreatic cancer were used to characterize iontophoretic delivery of gemcitabine with respect to pharmacokinetics (PK).
In the present example, IV delivery of gemcitabine was compared to local iontophoretic delivery of gemcitabine.

[2] = system: orthotopic PDX model of pancreatic cancer; settings: for mice with tumor regression: twice a week up to 7 weeks
Protocol: Iontophoretic devices were surgically implanted into orthotopic PDX tumors when their size reached ˜200 mm^3, as determined by high resolution 3D ultrasound. Mice were treated twice a week for up to 7 weeks with device gemcitabine (20 mg/mL), device saline (0.9% NaCl), IV Gemcitabine (80 mg/kg), or IV saline. Tumor volumes were measured by volume displacement after completion of the scheduled treatment due to the interference of implanted devices with ultrasound imaging.

[3] = PK study of device versus IV gemcitabine in non-tumor bearing dogs; assay type: in vivo
Protocol: Since there was no readily available large animal model for pancreatic cancer, a representative non-tumor bearing large animal model (Dogs) for humans was used. A laparotomy was performed and iontophoretic devices (shown in FIG. 41) were sutured directly onto the pancreas. A constant current of 10 mA was applied for 60 minutes using either 40 or 10 mg/mL gemcitabine (n=5, per group). […] For the IV treatment arm (n=4, per group), clinical protocol was followed for gemcitabine administration, which was an infusion of a 1 g/m^2 dose for thirty minutes, and the animal was euthanized 60 minutes after the start of the infusion. The plasma was sampled at 15 minute increments before, during, and after therapy. After therapy, the tissues were removed, flash-frozen, and analyzed by UV-HPLC.

[4] = ex vivo drug transport in pancreatic cancer PDX tumors; assay type: in vitro ADME; settings: 2 mA for 10 minutes, device sutured onto ex vivo PDX tumor, UV-HPLC
Protocol: Ex vivo drug transport studies were conducted using pancreatic cancer patient-derived xenografts (PDXs). Test drug transport devices were sutured onto the ex vivo PDX tumors and a counter electrode was placed on the contralateral side of the tumor. 2 or 0 mA of current was applied for 10 minutes and the tumors were subsequently snap frozen, processed, and analyzed by UV-high performance liquid chromatography (HPLC).

[5] = biodistribution/PK of device and/or IV cisplatin in orthotopic SUM149 cell xenograft model; assay type: in vivo, mice
Protocol: Device delivery of cisplatin was evaluated using an orthotopic SUM149 cell xenograft model of breast cancer. In addition to studying iontophoretic delivery as compared to IV delivery of the cisplatin, concurrent device and IV delivery was added as an arm of the study based upon the low systemic exposure of cisplatin. In the study, a single treatment was administered after adhesion of the device to the skin above the tumor.

[6] = system: T11 syngeneic orthotopic breast cancer models; assay: combined cisplatin and radiation efficacy, T11 syngeneic model; assay type: in vivo, mice; settings: single dose
Protocol: Using T11 syngeneic orthotopic breast cancer models, radiotherapy was tested as an alternative and/or additional treatment method to device and IV cisplatin to compare the therapeutic effects of the various treatments. Mice received a single dose of radiation (10 Gy), device cisplatin, device cisplatin+radiation (10 Gy), IV cisplatin (5 mg/kg), IV cisplatin+radiation (10 Gy), device+IV cisplatin (5 mg/kg), and device cisplatin+IV cisplatin (5 mg/kg)+radiation (10 Gy) five days after inoculation (˜20 mm^3).

[7] = ex vivo cisplatin transport into human skin, modified Franz diffusion cell; settings: 1 mA for 25 minutes, ~1 mm thick skin, ICP-MS
Protocol: Ex vivo drug transport studies were also conducted by transporting cisplatin into ˜1 mm thick human skin and were evaluated using a modified Franz diffusion cell with the test drug transport device directly above the skin instead of a donor chamber. During the testing, 1 or 0 mA of current was applied for 25 minutes, and the skin and solution were snap frozen, processed, and analyzed by inductively coupled plasma-mass spectrometry (ICP-MS).

[8] = system: T11 syngeneic orthotopic breast cancer model; assay: tumor treatment efficacy of cisplatin, T11 syngeneic model; assay type: in vivo, mice; settings: for median lifespan: control median 10 days; for tumor growth inhibition: two doses
Protocol: (§1) Iontophoretic delivery of cisplatin in was tested in both SUM149 cell xenograft and T11 syngeneic orthotopic breast cancer models. For both models, the efficacies of device cisplatin, IV cisplatin, device+IV cisplatin, device saline, and IV saline were compared.
(§2) For the SUM149 xenograft model, once the tumors reached ˜50 mm^3, the mice were treated with device cisplatin, IV cisplatin (5 mg/kg), device+IV cisplatin (5 mg/kg), device saline, or IV saline every week for four total doses, as shown in FIGS. 35A and 35B. […] For the T11 model, mice received two doses of device cisplatin, IV cisplatin (5 mg/kg), device+IV cisplatin (5 mg/kg), device saline, or IV saline every week for two total doses beginning five days after inoculation (˜20 mm^3), as shown in FIGS. 35C and 35D. The number of treatments varied between tumor models because of the differences in tolerability of treatments.

[9] = system: SUM149 cell xenograft orthotopic breast cancer model; assay type: in vivo, mice; settings: for median lifespan: control median 49 days; for tumor growth inhibition: weekly, four doses
Protocol: as §1, §2

[10] = device+IV cisplatin (5 mg/kg) + radiation (10 Gy)

Nc1ccn([C@@H]2O[C@H](CO)[C@@H](O)C2(F)F)c(=O)n1 [gemcitabine]
gemcitabine in plasma [1]: no detectable gemcitabine | gemcitabine tumor AUC [1]: 348070 ng·h/mL | distance away from the devices at which gemcitabine was detected ([1]; 0 h): 4.7 mm | distance away from the devices at which gemcitabine was detected ([1]; 3 h): 3 mm | distance away from the devices at which gemcitabine was detected ([1]; 6 h): 3 mm | AUC ([1]; iv, 80 mg/kg): 65200 ng·h/mL | gemcitabine tumor AUC ([1]; iv, 80 mg/kg): 30780 ng·h/mL | mean log2-fold change in tumor volume ([2]; IV gemcitabine (80 mg/kg)): 1.1 | mice with tumor regression ([2]; IV gemcitabine (80 mg/kg)): 0/7 | Ki-67 staining of tumors post treatment versus IV gemcitabine and saline arms ([2]; device gemcitabine): decrease in Ki-67 staining | mean log2-fold change in tumor volume ([2]; device gemcitabine (20 mg/mL)): −0.8 | mice with tumor regression ([2]; device gemcitabine (20 mg/mL), 52-day study): 7 out of 7 and 7/7 | tolerability (body weight gain, alanine transaminase, lipase) compared to IV gemcitabine ([2]; mouse, in vivo): better tolerated | gemcitabine in plasma ([3]; IV infusion 1 g/m^2 for thirty minutes): detected in the plasma of all dogs | distance of gemcitabine transport away from the electrode ([3]; device, 10 mg/mL): 6.3 mm | fold increase in concentration of gemcitabine in the normal canine pancreas compared to IV administration ([3]; device, 10 mg/mL): 2.0 fold | drug in plasma ([3]; device, 10 mg/mL, 10 mA for 60 minutes): no drug detected | distance of gemcitabine transport away from the electrode ([3]; device, 40 mg/mL): 9.6 mm | fold increase in concentration of gemcitabine in the normal canine pancreas compared to IV administration ([3]; device, 40 mg/mL): 7.1 fold | dogs with detectable levels of gemcitabine in plasma ([3]; device, 40 mg/mL, 10 mA for 60 minutes): 2 out of 5 | fold lower plasma gemcitabine levels than the IV treatment ([3]; device, 40 mg/mL, dogs with detectable levels): at least 25 fold | fold increase in drug transport versus passive diffusion control (0 mA) [4]: 9.1 fold

[NH2][Pt]([NH2])([Cl])[Cl] [cisplatin]
Platinum Plasma Exposure (AUC) ([5]; Device + IV (5 mg/kg) Delivery): 10650 ng·h/mL | Platinum Plasma Exposure (AUC) ([5]; Device Delivery, single treatment): 1990 ng·h/mL | Platinum Plasma Exposure (AUC) ([5]; IV (5 mg/kg) Delivery): 9910 ng·h/mL | survival on addition of radiation ([6]; IV cisplatin (5 mg/kg) + radiation (10 Gy)): significantly improved survival | survival on addition of radiation ([6]; device cisplatin + radiation (10 Gy)): significantly improved survival | survival on addition of radiation [6, 10]: significantly improved survival | tumor growth inhibition and survival versus other groups [6, 10]: outperformed all other treatment groups | fold increase in platinum transported into the human skin versus passive diffusion (0 mA) [7]: 11.4 fold | median lifespan ([8]; IV cisplatin (5 mg/kg)): 22 days | tumor growth inhibition ([8]; device cisplatin, similar to IV cisplatin until day 9): significant tumor growth inhibition | median lifespan ([8]; device cisplatin): 20 days | tumor growth inhibition ([8]; device+IV cisplatin (5 mg/kg)): significant tumor growth inhibition | median lifespan ([8]; device+IV cisplatin (5 mg/kg)): 32 days | median lifespan ([9]; IV cisplatin (5 mg/kg)): 68 days | tumor γH2AX staining, device cisplatin versus IV cisplatin ([9]; device cisplatin, tumors post treatment): almost equivalent γH2AX staining | tumor growth inhibition ([9]; device cisplatin, similar to IV cisplatin until day 42): significant tumor growth inhibition | median lifespan ([9]; device cisplatin): 60 days | tumor growth inhibition ([9]; device+IV cisplatin (5 mg/kg)): significant tumor growth inhibition | median lifespan ([9]; device+IV cisplatin (5 mg/kg)): > 100 days | tumor γH2AX staining ([9]; device+IV cisplatin, tumors post treatment): greater γH2AX staining | skin of the mice after device treatment ([9]; mouse, in vivo): no scarring or deformation | tolerability by kidney γH2AX staining compared to IV cisplatin and device+IV cisplatin ([9]; mouse, in vivo): better tolerated

Reference: patent US11351399B2, “Combined local delivery of therapeutic agents using interventional devices and radiation” (The University of North Carolina At Chapel Hill, priority 2014, dated 2022)
